According to patent publication US4346075A, “Antibiotic DC-11 and process for production thereof” (Kyowa Hakko Kogyo Co., Ltd., priority 1980, dated 1982):
Values after ≈ are worked out from the molar mass of the structure shown.

Assays:
[1] = tested on: Lymphocytic leukemia P-388 tumor; experiment: effect on Lymphocytic leukemia P-388 tumor; assay type: in vivo, male CDF1 mice; conditions: 24 hours following implantation
Method: Five male CDF1 mice having a weight of about 22 g are used for each group as test animals, and 1×10^6 cells of Lymphocytic leukemia P-388 tumor are implanted intraperitoneally in the test animals. Twenty-fours hours following implantation, 0.2 ml PBS solution containing DC-11 in various concentrations is administered intraperitoneally.
For comparison, 0.2 ml PBS solution containing mitomycin C is administered to a group of test animals intraperitoneally at the same time as the test compound.
The average survival period (ASP: days) and T/C (T: average survival days of the groups administered with test compound, C: average survival days of the control group) after implantation are shown in the following Table 6.

[2] = tested on: Sarcoma 180 ascites tumor; experiment: effect on sarcoma 180 ascites tumor; assay type: in vivo, male ddY-strain mice; conditions: seven days after implantation
Method: Six male ddY-strain mice having a weight of 20 g are used for each group as test animals; and 5×10^6 cells of Sarcoma 180 ascites tumor are implanted in the animals. After 24 hours following implantation, 0.2 ml phosphate buffered saline (PBS) containing DC-11 in various concentrations is administered intraperitoneally. PBS comprises 0.8 g/dl NaCl, 0.02 g/dl KCl, […] Na2 HPO4, 0.02 g/dl KH2 PO4 (pH 7.2).
For comparison, 0.2 ml PBS solution containing mitomycin C is administered to a group of amimals intraperitoneally at the same time as the test compound.
Seven days after implantation, the average tumor volume (mm^3) and T/C (T: average tumor volume of test compound, C: that of control) are determined.

[3] = solubility; assay type: physicochemical
[4] = acute toxicity, intraperitoneal, mice; conditions: mouse, in vivo, ip, intraperitoneally
[5] = tested on: Escherichia coli ATCC 26; experiment: in vitro antibacterial spectrum, disc method (pH 8.0); assay type: cell-based; conditions: ATCC26, Escherichia coli ATCC 26, disc method, read-out: Minimum Inhibitory Concentration (MIC)
Description: (§1) The in vitro antibacterial spectra of DC-11 determined by the disc method (pH 8.0) is illustrated in the following Table 4.

[6] = tested on: Salmonella typhosa ATCC 9992; experiment: as above; assay type: cell-based; conditions: Salmonella enterica, pH 8, read-out: Minimum Inhibitory Concentration (MIC)
Description: as §1

[7] = tested on: Klebsiella pneumoniae ATCC 10031; experiment: as above; assay type: cell-based; conditions: ATCC10031, Klebsiella pneumoniae ATCC 10031, disc method, read-out: Minimum Inhibitory Concentration (MIC)
Description: as §1

[8] = tested on: Staphylococcus aureus ATCC 6538 P; experiment: as above; assay type: cell-based; conditions: ATCC6538, read-out: Minimum Inhibitory Concentration (MIC)
Description: as §1

[9] = tested on: Bacillus subtilis No. 10707; experiment: as above; assay type: cell-based; conditions: Bacillus subtilis No. 10707, disc method, read-out: Minimum Inhibitory Concentration (MIC)
Description: as §1

[10] = tested on: Shigella sonnei ATCC 9290; experiment: as above; assay type: cell-based; conditions: ATCC9290, Shigella sonnei ATCC 9290, disc method, read-out: Minimum Inhibitory Concentration (MIC)
Description: as §1

Q: With `COC(=O)NC1C(C)OC(OC2CC=C(C)C3C=CC4C(OC5CC(OC6CCC(OC7CC(O)C(OC8CCC(O)C(C)O8)C(C)O7)C(C)O6)C(OC(C)=O)C(C)O5)C(C)CC(C)C4C3(C)C(=O)C3=C(O)C4(CC(C=O)=CC(O)C4C=C2C)OC3=O)CC1(C)[N+](=O)[O-]` (centres unmarked) [DC-11] as the compound, how does the “T/C (average survival days, test group / control group)” value ([1]; 6.25 mg/Kg i.p.) read?
A: 1.20

Q: And the “average survival period (ASP)” value ([1]; 6.25 mg/Kg i.p.)?
A: 11.2 days

Q: What about the “T/C (average survival days, test group / control group)” value ([1]; 12.5 mg/Kg i.p.) of the same compound?
A: 1.43

Q: What about the “average survival period (ASP)” value ([1]; 12.5 mg/Kg i.p.) of the same compound?
A: 13.4 days

Q: What about the “T/C (average survival days, test group / control group)” value ([1]; 25.0 mg/Kg i.p.) of the same compound?
A: 1.38

Q: And the “average survival period (ASP)” value ([1]; 25.0 mg/Kg i.p.)?
A: 13.0 days

Q: And the “T/C (average tumor volume of test compound / control)” value ([2]; 25 mg/Kg i.p.)?
A: 0.78

Q: What about the “V: average tumor volume” value ([2]; 25 mg/Kg i.p.) of the same compound?
A: 1096 mm^3

Q: And the “T/C (average tumor volume of test compound / control)” value ([2]; 50 mg/Kg i.p.)?
A: 0.52

Q: And the “V: average tumor volume” value ([2]; 50 mg/Kg i.p.)?
A: 730 mm^3

Q: What about the “T/C (average tumor volume of test compound / control)” value ([2]; 70 mg/Kg i.p.) of the same compound?
A: 0.42

Q: What about the “V: average tumor volume” value ([2]; 70 mg/Kg i.p.) of the same compound?
A: 590 mm^3

Q: And the Solubility ([3]; benzene and water)?
A: slightly soluble

Q: What about the Solubility ([3]; ethylether, petroleum ether and n-hexane) of the same compound?
A: insoluble

Q: And the Solubility ([3]; methanol, ethanol, butanol, acetone, ethyl acetate and chloroform)?
A: soluble

Q: And the LD50 [4]?
A: 54 mg/kg

Q: And the MIC [5]?
A: > 100 mg/L

Q: And the MIC [6]?
A: > 100 mg/L

Q: What about the MIC [7] of the same compound?
A: > 100 mg/L

Q: What about the MIC [8] of the same compound?
A: 20 mg/L (≈ 15.2 µM)

Q: And the MIC [9]?
A: 0.1 mg/L (≈ 0.0761 µM)

Q: What about the MIC [10] of the same compound?
A: > 100 mg/L

Q: For `CO[C@@]12[C@H](COC(N)=O)C3=C(C(=O)C(C)=C(N)C3=O)N1C[C@@H]1N[C@@H]12` [Mitomycin C, mitomycin C, reference compound], which “T/C (average survival days, test group / control group)” value ([1]; 4.2 mg/Kg i.p.) is on record?
A: 1.51

Q: And the “average survival period (ASP)” value ([1]; 4.2 mg/Kg i.p.)?
A: 14.2 days

Q: And the “T/C (average tumor volume of test compound / control)” value ([2]; 4.2 mg/Kg i.p.)?
A: 0.32

Q: And the “V: average tumor volume” value ([2]; 4.2 mg/Kg i.p.)?
A: 450 mm^3
